The values that follow come from PubChem BioAssay AID330 (DTP/NCI, 2004).

Molecules are shown by their SMILES. Where “and” joins values, the source holds several entries; their conditions need not be identical. Equal values may be shown once. Toxic doses and inconclusive results are not listed.

The test system of the assay is P388 leukemia ip, CD2F1 mice, survival T/C. In words: NCI In Vivo Anticancer Drug Screen. Data for tumor model P388 Leukemia (intraperitoneal) in CD2F1 (CDF1) mice. The settings on record: endpoint: median survival time, higher = longer survival. An outline of the steps: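 Mice carrying the transplanted tumor received test compound or vehicle. Survival was recorded in each group, and the value is the treated-group measurement divided by that of the vehicle-treated control group.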

[1] abbreviates: dose: 50.0 mg/kg/injection, schedule: Q01DX009 (ip), vehicle: Klucel (hydroxypropylcellulose) (HPC).
The mark [2] stands for this setting: dose: 50.0 mg/kg/injection, schedule: Q01DX009 (ip), vehicle: saline with Tween-80.
Setting [3] is: dose: 100.0 mg/kg/injection, schedule: Q01DX009 (ip), vehicle: saline with Tween-80.
Where [4] appears, read: dose: 200.0 mg/kg/injection, schedule: Q01DX009 (ip), vehicle: saline with Tween-80.
[5] abbreviates: dose: 50.0 mg/kg/injection, schedule: Q01DX005 (ip), vehicle: Klucel (hydroxypropylcellulose) (HPC).
[6] abbreviates: dose: 100.0 mg/kg/injection, schedule: Q01DX005 (ip), vehicle: Klucel (hydroxypropylcellulose) (HPC).
[7] abbreviates: dose: 200.0 mg/kg/injection, schedule: Q01DX005 (ip), vehicle: Klucel (hydroxypropylcellulose) (HPC).
[8] abbreviates: dose: 25.0 mg/kg/injection, schedule: Q01DX009 (ip), vehicle: saline with Tween-80.
Where [9] appears, read: dose: 25.0 mg/kg/injection, schedule: Q01DX005 (ip), vehicle: Klucel (hydroxypropylcellulose) (HPC).

With `CC1OC(n2ccc(NC(=O)c3ccc(NC(=O)C(C)(N)CO)cc3)nc2=O)CCC1OC1OC(C)C(N(C)C)C(O)C1O` (stereo unspecified), the T/C is 100 % of control (dose: 100.0 mg/kg/injection, schedule: Q04DX003 (ip), vehicle: saline with Tween-80); 100 % of control (dose: 200.0 mg/kg/injection, schedule: Q04DX003 (ip), vehicle: saline with Tween-80); 109 % of control (dose: 400.0 mg/kg/injection, schedule: Q04DX003 (ip), vehicle: saline with Tween-80).

Take `COc1ccc(C(SCC(N)C(=O)O)(c2ccccc2)c2ccc(OC)cc2)cc1` (stereo unspecified): the T/C is, setting by setting: (dose: 33.0 mg/kg/injection, schedule: Q04DX003 (ip), vehicle: saline) 185 % of control; (dose: 50.0 mg/kg/injection, schedule: Q04DX003 (ip), vehicle: saline) 165 % of control; (dose: 75.0 mg/kg/injection, schedule: Q04DX003 (ip), vehicle: saline) 90 % of control.

Turning to `NS(=O)(=O)c1cc2c(cc1Cl)NC=NS2(=O)=O`, the T/C was 100 % of control and 103 % of control (dose: 18.75 mg/kg/injection, schedule: Q01DX009 (ip), vehicle: Klucel (hydroxypropylcellulose) (HPC)); 104 % of control and 91 % of control (dose: 37.5 mg/kg/injection, schedule: Q01DX009 (ip), vehicle: Klucel (hydroxypropylcellulose) (HPC)); 104 % of control and 89 % of control (dose: 75.0 mg/kg/injection, schedule: Q01DX009 (ip), vehicle: Klucel (hydroxypropylcellulose) (HPC)); 104 % of control and 90 % of control (dose: 150.0 mg/kg/injection, schedule: Q01DX009 (ip), vehicle: Klucel (hydroxypropylcellulose) (HPC)); 99 % of control and 100 % of control (dose: 225.0 mg/kg/injection, schedule: Q01DX009 (ip), vehicle: Klucel (hydroxypropylcellulose) (HPC)).

As to `C=C(C(=O)O)S(=O)(=O)O`, the T/C is 102 % of control (dose: 7.5 mg/kg/injection, schedule: Q01DX009 (ip), vehicle: saline with Tween-80); 110 % of control (dose: 15.0 mg/kg/injection, schedule: Q01DX009 (ip), vehicle: saline with Tween-80); 114 % of control (dose: 30.0 mg/kg/injection, schedule: Q01DX009 (ip), vehicle: saline with Tween-80).

On to `COc1cccc(/C=C2/C(=O)N(Cc3ccco3)SC2=S)c1OC`, for which the T/C under setting [1] was 97 % of control; the T/C (dose: 100.0 mg/kg/injection, schedule: Q01DX009 (ip), vehicle: Klucel (hydroxypropylcellulose) (HPC)) was 95 % of control; the T/C (dose: 200.0 mg/kg/injection, schedule: Q01DX009 (ip), vehicle: Klucel (hydroxypropylcellulose) (HPC)) was 92 % of control.

On to `CC1CCC2(NC1)OC1CC3C4CCC5CC(N)CCC5(C)C4CCC3(C)C1C2C` (stereo unspecified), for which the T/C by setting is: (dose: 6.25 mg/kg/injection, schedule: Q01DX009 (ip), vehicle: Klucel (hydroxypropylcellulose) (HPC)) 105 % of control; (dose: 12.5 mg/kg/injection, schedule: Q01DX009 (ip), vehicle: Klucel (hydroxypropylcellulose) (HPC)) 95 % of control; (dose: 25.0 mg/kg/injection, schedule: Q01DX009 (ip), vehicle: Klucel (hydroxypropylcellulose) (HPC)) 106 % of control; under setting [1], 110 % of control.

Regarding `CN(C)C1(c2ccc3ccccc3c2)CS(=O)(=O)C1`, the T/C reads like this: (dose: 100.0 mg/kg/injection, schedule: Q04DX002 (ip), vehicle: saline with Tween-80) 100 % of control; (dose: 200.0 mg/kg/injection, schedule: Q04DX002 (ip), vehicle: saline with Tween-80) 98 % of control; (dose: 400.0 mg/kg/injection, schedule: Q04DX002 (ip), vehicle: saline with Tween-80) 92 % of control.

As for `N#Cc1ccc(Cl)cc1`, the T/C is 101 % of control under setting [2], 89 % of control under setting [3] and 93 % of control under setting [4].

In the case of `NNC(=O)C(=O)N/N=C(/CC1(O)C(=O)Nc2ccccc21)c1ccc([N+](=O)[O-])cc1` (stereo unspecified), the T/C was 103 % of control (dose: 50.0 mg/kg/injection, schedule: Q01DX005 (ip), vehicle: saline with Tween-80); 94 % of control (dose: 100.0 mg/kg/injection, schedule: Q01DX005 (ip), vehicle: saline with Tween-80); 90 % of control (dose: 200.0 mg/kg/injection, schedule: Q01DX005 (ip), vehicle: saline with Tween-80).

Turning to `CCOC(=O)c1ccc(NC(=O)OCc2ccccc2)cc1`, the T/C by setting is: under setting [2], 91 % of control; under setting [3], 86 % of control; under setting [4], 96 % of control; (dose: 400.0 mg/kg/injection, schedule: Q01DX009 (ip), vehicle: saline with Tween-80) 107 % of control.

In the case of `FC(F)(F)C1(C(F)(F)F)O[P+]2(OC(C(F)(F)F)(C(F)(F)F)c3ccccc32)c2ccccc21`, the T/C is 97 % of control under setting [5], 105 % of control under setting [6] and 106 % of control under setting [7].

With `NC1CCCCCC1`, the T/C was 110 % of control (dose: 50.0 mg/kg/injection, schedule: Q01DX005 (ip), vehicle: saline) and 86 % of control (dose: 100.0 mg/kg/injection, schedule: Q01DX005 (ip), vehicle: saline).

With `CCN(CC)c1cc(Cl)ccc1Cl`, the T/C runs as follows: under setting [8], 104 % of control; under setting [2], 104 % of control; under setting [3], 100 % of control.

As for `NC(=S)SCCC(=O)N1CCCC1`, the T/C by setting is: under setting [9], 103 % of control; under setting [5], 97 % of control; under setting [6], 99 % of control; under setting [7], 101 % of control.

`N#CC1OC1c1ccccn1` (stereo unspecified): the T/C runs as follows: (dose: 6.25 mg/kg/injection, schedule: Q01DX005 (ip), vehicle: saline + Tween-80 + alcohol) 98 % of control; (dose: 12.5 mg/kg/injection, schedule: Q01DX005 (ip), vehicle: saline + Tween-80 + alcohol) 98 % of control.

In the case of `Cc1cc2nc3c(C(O)C(O)C(O)CO)nn(-c4ccc(F)cc4)c3nc2cc1C` (stereo unspecified), the T/C reads like this: under setting [5], 88 % of control; under setting [6], 86 % of control; under setting [7], 93 % of control.

As for `CN(C)c1ccccc1[Si](C)(C)N(C)C`, the T/C runs as follows: (dose: 60.0 mg/kg/injection, schedule: Q01DX005 (ip), vehicle: saline) 103 % of control; (dose: 120.0 mg/kg/injection, schedule: Q01DX005 (ip), vehicle: saline) 103 % of control; (dose: 240.0 mg/kg/injection, schedule: Q01DX005 (ip), vehicle: saline) 106 % of control.

As for `CCCCCCCCCCCCCCCC[N+]1([O-])CCCCCC1`, for the setting “dose: 50.0 mg/kg/injection, schedule: Q01DX009 (ip), vehicle: saline”, the T/C was 93 % of control.

Turning to `CC(=C/c1cc(C)cc(=O)o1)/C=C/c1ccc(C)c(C)c1C`, the T/C runs as follows: (dose: 12.5 mg/kg/injection, schedule: Q01DX005 (ip), vehicle: Klucel (hydroxypropylcellulose) (HPC)) 97 % of control; under setting [9], 97 % of control; under setting [5], 99 % of control and 88 % of control and 90 % of control; under setting [7], 86 % of control and 88 % of control.

As for `CN(C)n1c(O)c(N=O)sc1=S`, the T/C is 96 % of control under setting [5] and 95 % of control under setting [6].

Consider `NC1(C(=O)O)CCCc2ccc(N(CCCl)CCCl)cc21` (stereo unspecified), for which the T/C (dose: 5.0 mg/kg/injection, schedule: Q04DX003 (ip), vehicle: saline) was 165 % of control; the T/C (dose: 6.25 mg/kg/injection, schedule: Q01DX009 (ip), vehicle: saline with Tween-80) is 218 % of control and 197 % of control and 201 % of control; the T/C (dose: 10.0 mg/kg/injection, schedule: Q04DX003 (ip), vehicle: saline) was 180 % of control; the T/C (dose: 12.5 mg/kg/injection, schedule: Q01DX009 (ip), vehicle: saline with Tween-80) was 272 % of control and 210 % of control and 215 % of control; the T/C (dose: 12.5 mg/kg/injection, schedule: Q04DX003 (ip), vehicle: saline with Tween-80) was 222 % of control; the T/C under setting [8] was 90 % of control and 102 % of control and 121 % of control. The T/C by setting is: (dose: 25.0 mg/kg/injection, schedule: Q04DX003 (ip), vehicle: saline with Tween-80) 272 % of control; (dose: 313.0 micrograms/kg/injection, schedule: Q04DX003 (ip), vehicle: saline with Tween-80) 100 % of control; (dose: 625.0 micrograms/kg/injection, schedule: Q04DX003 (ip), vehicle: saline with Tween-80) 109 % of control; (dose: 1250.0 micrograms/kg/injection, schedule: Q04DX003 (ip), vehicle: saline with Tween-80) 113 % of control.
